In patent publication US9675556B2, “Biodegradable stealth polymeric particles fabricated using the macromonomer approach by free radical dispersion polymerization” (Howard University, priority 2010, dated 2017):

Assays:
Experiment in all cases: CellTiter-Glo luminescent cell viability assay (in vitro cytotoxicity)
Format in all cases: cell-based
Settings in all cases: […] to 120 nM paclitaxel, 48, 72 and 96 hours
SK-OV-3 cells = test system: SK-OV-3 cells
Experimental: (§1) The concentrations tested range from 2.5 nM to 120 nM. The experiment was carried out as follows: Cultured cells (MCF-7, SK-OV 3, and MDA-MB-231) were seeded in 96-well plates at a seeding density of 6000 cells/well/0.1 mL medium and allowed to attach for 24 hours. […] To allow direct comparison, the amount of paclitaxel-loaded nanoparticles containing the same amount of paclitaxel as the paclitaxel in solution was used. Control cells were treated with medium only, medium with 0.05% DMSO, and medium containing blank nanoparticles at the highest concentration tested.
(§2) Cell viability was assessed at 48-, 72- and 96-hours post treatment respectively. Briefly, at the predetermined time intervals the treatment was washed off and fresh medium added. An amount of the CellTiter®-Glo reagent equal to the amount of medium was added. The plate was mixed by shaking on an orbital shaker for 2 minutes to induce cell lysis and luminescence was measured after 10 minutes using the FLUOstar OPTIMA plate reader (BMG LABTECH). In this assay, the number of viable cells in culture is determined by quantification of the ATP present which is an index of the presence of metabolically active cells (CellTiter®-Glo Luminescent Cell Viability Assay Technical Bulletin, TB 288; Promega). Results are presented as percent viability normalized to controls and represent the mean±S.D. of 4 replicates per concentration tested, as shown in FIG. 9. The results were analyzed by using Student's t-test using the SPSS® statistical software. Differences were considered significant at p<0.05.

MCF-7 cells = test system: MCF-7 cells
Experimental: as §1, §2

MDA-MB-231 cells = test system: MDA-MB-231 cells
Experimental: as §1, §2

Measured: cell growth inhibition (cell viability)

CC(=O)O[C@H]1C(=O)[C@@]2(C)[C@H]([C@H](OC(=O)c3ccccc3)[C@]3(O)C[C@H](OC(=O)[C@H](O)[C@@H](NC(=O)c4ccccc4)c4ccccc4)C(C)=C1C3(C)C)[C@]1(OC(C)=O)CO[C@@H]1C[C@@H]2O [paclitaxel solution, paclitaxel]
inhibited cell growth: all assays above
